Source: patent US20240189307A1, “METHODS OF STABILIZING THE NEURONAL PROTEOME AGAINST COLLAPSE AND PROTECTING VASCULAR CELLS” (ALBERT EINSTEIN COLLEGE OF MEDICINE, priority 2021, published 2024)

What was measured:
[1] = tested on: NIH3T3 cells stably expressing the KFERQ-PS-Dendra reporter; experiment: CMA activity in cells with KFERQ-PS-Dendra reporter (fluorescent puncta per cell); type: cell-based, mouse; details: increasing concentrations; 12 h, 16 h or 24 h treatment
Procedure: FIG. 10. Characterization of the brain permeable chemical activator of CMA and effect in a mouse model of Frontotemporal dementia-related proteotoxicity. (A) Chemical structure of AR7 and CA77.1. (B) Quantification of the effect of adding increasing concentrations of AR7 and CA77.1 to NIH3T3 cells stably expressing the KFERQ-PS-Dendra reporter. CMA activity was quantified after 16 h treatment as the average of fluorescent puncta per cell. (n>800 cells per condition). (C) Autophagic flux in NIH3T3 cells incubated at 37° C. for 16 h with 20 µM AR7 or CA77.1 or without additions (none). Where indicated lysosomal protease inhibitors (PI) were added to the cells 6 h before lysis. Left: representative immunoblot. […] Right: quantification of LC3-II flux as the difference in LC3-II levels in cells treated with PI relative to untreated. […] (D) Quantification of the effect of adding increasing concentrations of AR7 and CA77.1 to NIH3T3 cells stably expressing the KFERQ-PS-Dendra reporter. CMA activity was quantified after 12 h or 24 h treatment as the average of fluorescent puncta per cell. […] Representative immunoblot of 4-5 mice per genotype and treatment (L) and densitometric quantification of AT8 as monomer [Kruskal-Wallis statistic=20.48, p<0.0001] […] (O, P) Quantification of the number of Iba1-positive microglial cells per mm^2 in the hippocampus [Kruskal-Wallis statistic=10.55, p=0.0051] […]

[2] = Blood cell count and histopathology of peripheral organs (liver, lung, kidney) after daily oral administration; type: in vivo; details: after 3 months of daily treatment

For `CC(=O)Nc1ccc(-c2cnc3cc(Cl)ccc3n2)cc1` [CA77.1], the “CMA activity in vitro” value [1] was “activates CMA in vitro in dose- and time-dependent manner” and the “blood or major organs toxicity” value [2] was “absence of blood or major organs toxicity”.
